Series [1] concerns mice. Particulars: mouse, in vivo.
Series [2] has as its system mice. The note with it: mouse, in vivo. This is another data set of the same source.
Series [3] relates to mice. The note with it: mouse, in vivo, iv.

With `CSCC[C@@H]1NC(=O)[C@H](CC(C)C)NC(=O)[C@H](CCCNC(=N)N)NC(=O)[C@H](CO)NC(=O)[C@@H]2CSSC[C@@H]3NC(=O)[C@H](CO)NC(=O)CNC(=O)[C@H]([C@@H](C)O)NC(=O)[C@H](CSSC[C@H](N)C(=O)N[C@@H](CCCCN)C(=O)NCC(=O)N[C@@H](CCCCN)C(=O)NCC(=O)N[C@@H](C)C(=O)N[C@@H](CCCCN)C(=O)N2)NC(=O)[C@H](CSSC[C@@H](C(N)=O)NC(=O)[C@H](CCCCN)NC(=O)CNC(=O)[C@H](CO)NC(=O)[C@H](CCCNC(=N)N)NC3=O)NC(=O)[C@H](CC(=O)O)NC(=O)[C@H](Cc2ccc(O)cc2)NC1=O` [MVIIA, reference compound], the “tremor symptoms and tremor time (side effects) 30 minutes after administration” value in the series on mice [1] was “more obvious tremor symptoms and longer tremor time”.

For “CKGKGAKCSRLMYDCCTGSCRSGKCGGGYGRKKRRQRRR [MVIIA-d]”, in the series with mice [2], the “onset of antinociceptive effect after nasal administration” value (shortened to “onset of antinociceptive effect”) is “immediate effect”. In the series on mice [3], the “antinociceptive effect 1 hour after injection” value (shortened to “antinociceptive effect 1 hour”) is “showed antinociceptive effects” and the “duration of the maximal effect” value is listed as “about 4 hours”. Also, in the series with mice [1], the “tremor symptoms and tremor time (side effects) 30 minutes after administration” value is “lower than that of MVIIA”; the “tremor symptoms and tremor time (side effects) 120 minutes after administration, compared with MVIIA” value is given as “no significant differences”.

In the case of “CKGKGAKCSRLMYDCCTGSCRSGKCGGYGRKKRRQRRR [MVIIA-c]”, in the series on mice [2], the “difference from the saline group at 8 hours” value is “still significantly different”, the “onset of antinociceptive effect” value is given as “immediate effect” and the “time after which the effect disappears” value came out at 10 h. Moreover, in the series with mice [3], the “duration of the maximal effect” value is “about 4 hours” and the “time of maximal (strongest) antinociceptive effect after administration” value stood at 3 h. In addition, in the series on mice [1], the “tremor symptoms and tremor time (side effects) 30 minutes after administration” value is “lower than that of MVIIA”; the “tremor symptoms and tremor time (side effects) 120 minutes after administration, compared with MVIIA” value is recorded as “no significant differences”.

Turning to “CKGKGAKCSRLMYDCCTGSCRSGKCGYGRKKRRQRRR [MVIIA-b]”, in the series with mice [2], the “difference from the saline group at 8 hours” value is listed as “still significantly different”, the “onset of antinociceptive effect” value is listed as “immediate effect” and the “time after which the effect disappears” value was found to be 10 h. In addition, in the series on mice [3], the “antinociceptive effect 1 hour” value is “showed antinociceptive effects” and the “duration of the maximal effect” value is on record as “about 4 hours”. In the series on mice [1], the “tremor symptoms and tremor time (side effects) 30 minutes after administration” value was “lower than that of MVIIA”; the “tremor symptoms and tremor time (side effects) 120 minutes after administration, compared with MVIIA” value is “no significant differences”.

Consider “CKGKGAKCSRLMYDCCTGSCRSGKCYGRKKRRQRRR [MVIIA-a]”, for which the “onset of antinociceptive effect” value with mice [2] is given as “immediate effect”. In addition, in the series with mice [3], the “antinociceptive effect 1 hour” value is recorded as “showed antinociceptive effects” and the “duration of the maximal effect” value is “about 4 hours”. Besides, in the series on mice [1], the “tremor symptoms and tremor time (side effects) 30 minutes after administration” value is listed as “lower than that of MVIIA”; the “tremor symptoms and tremor time (side effects) 120 minutes after administration, compared with MVIIA” value is on record as “no significant differences”.

Values taken from patent publication US11814416B2, “Polypeptide capable of passing through blood-brain barrier” (SHENZHEN RUIJIAN […] COMPANY, priority 2018, dated 2023).
